# Experimental data published in US20240166609A1, “ANTIBACTERIAL COMPOUNDS” (BLACKSMITH MEDICINES, INC., priority 2021, published 2024).
# pIC50: −log10 of the molar value.
# Legend:
# K. pneumoniae LpxC = K. pneumoniae LpxC (Klebsiella pneumoniae subsp. pneumoniae, UniProt A6T4N9); experiment: LpxC Binding Assay (Rapid Fire MS assay); assay type: biochemical
# P. aeruginosa LpxC = molecular target: T1, P. aeruginosa LpxC (Pseudomonas aeruginosa, UniProt P47205); experiment: LpxC Binding Assay (Rapid Fire MS assay); assay type: biochemical
# T1 sequence (P47205 1-303): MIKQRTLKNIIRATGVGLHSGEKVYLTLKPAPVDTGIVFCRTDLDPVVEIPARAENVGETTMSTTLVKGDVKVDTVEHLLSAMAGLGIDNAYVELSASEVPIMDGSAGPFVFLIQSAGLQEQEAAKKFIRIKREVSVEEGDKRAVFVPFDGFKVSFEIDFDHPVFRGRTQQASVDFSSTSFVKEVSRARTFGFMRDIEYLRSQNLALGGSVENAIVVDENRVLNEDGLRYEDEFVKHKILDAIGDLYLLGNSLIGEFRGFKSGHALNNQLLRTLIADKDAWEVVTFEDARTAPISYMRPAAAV
# Description: (§1) IC50 values against E. coli and P. aeruginosa LpxC are determined using a Rapid Fire MS assay as previously described J. Med. Chem. 2012, 55, 1662-1670.
# E. coli LpxC = molecular target: T2, E. coli LpxC (Escherichia coli, UniProt P0A725); experiment: LpxC Binding Assay (Rapid Fire MS assay); assay type: biochemical
# T2 sequence (P0A725 1-305): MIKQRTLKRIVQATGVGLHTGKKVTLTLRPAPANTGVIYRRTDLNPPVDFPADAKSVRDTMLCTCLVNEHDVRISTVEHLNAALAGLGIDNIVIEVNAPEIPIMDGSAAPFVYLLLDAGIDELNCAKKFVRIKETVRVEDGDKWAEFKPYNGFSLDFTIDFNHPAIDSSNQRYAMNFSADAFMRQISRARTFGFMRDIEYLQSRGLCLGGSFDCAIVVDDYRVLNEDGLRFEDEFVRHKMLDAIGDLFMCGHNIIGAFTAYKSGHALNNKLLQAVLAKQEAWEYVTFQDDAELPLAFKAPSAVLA
# Description: as §1
# P. aeruginosa 209 PAO1 = experiment: Bacterial susceptibility testing, MIC by broth microdilution (CLSI); assay type: cell-based; conditions: Pseudomonas aeruginosa, 35° C., 18-24 h, read-out: MIC (μg/mL) P. aeruginosa 209 PAO1
# Description: (§2) Minimal inhibitory concentrations (MIC) were determined by the broth microdilution method in accordance with the Clinical and Laboratory Standards Institute (CLSI) guidelines. In brief, organism suspensions were adjusted to a final inoculum between 3×10^5 and 7×10^5 colony-forming units (CFU)/mL. Drug dilutions and inocula were made in sterile, cation adjusted Mueller-Hinton Broth (Beckton Dickinson). In wells, an inoculum volume of 100 μL was mixed to 2 μL of DMSO with 2-fold serial dilutions of drug. All inoculated microdilution trays were incubated in ambient air at 35° C. for 18-24 h. Following incubation, the lowest concentration of the drug that prevented visible growth (OD600 nm<0.05) was recorded as the MIC. Performance of the assay was monitored by the use of laboratory quality-control strains and compounds with defined MIC spectrum, in accordance with CLSI guidelines
# P. aeruginosa ATCC27835 = experiment: as above; assay type: cell-based; conditions: Pseudomonas aeruginosa, 35° C., 18-24 h, read-out: MIC (μg/mL) P. aeruginosa ATCC27835
# Description: as §2
# K. pneumoniae ATCC13883 = experiment: as above; assay type: cell-based; conditions: Klebsiella pneumoniae, 35° C., 18-24 h, read-out: MIC (μg/mL) K. pneumoniae ATCC13883
# Description: as §2
# E. coli ATCC25922 = experiment: as above; assay type: cell-based; conditions: Escherichia coli, 35° C., 18-24 h, read-out: MIC (μg/mL) E. coli ATCC25922
# Description: as §2
# Sequence of K. pneumoniae LpxC (A6T4N9 whole entry): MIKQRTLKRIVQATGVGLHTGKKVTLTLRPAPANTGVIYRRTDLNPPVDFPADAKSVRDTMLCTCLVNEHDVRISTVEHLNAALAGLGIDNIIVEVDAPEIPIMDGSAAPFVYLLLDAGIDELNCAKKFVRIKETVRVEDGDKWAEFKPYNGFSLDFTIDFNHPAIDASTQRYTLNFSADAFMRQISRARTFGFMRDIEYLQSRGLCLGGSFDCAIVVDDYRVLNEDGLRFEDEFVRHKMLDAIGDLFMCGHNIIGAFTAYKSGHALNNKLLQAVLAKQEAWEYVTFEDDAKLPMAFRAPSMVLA
MIC (E. coli ATCC25922) [µg/mL],SMILES,pIC50 (K. pneumoniae LpxC),pIC50 (P. aeruginosa LpxC),pIC50 (E. coli LpxC),MIC (P. aeruginosa 209 PAO1) [µg/mL],MIC (P. aeruginosa ATCC27835) [µg/mL],MIC (K. pneumoniae ATCC13883) [µg/mL]
–,"C[C@H](O)c1nccn1CC#Cc1ccc(-c2ccc(C3CN(C(=O)CO)C3)cc2)cc1 [Compound 21, (S)-2-hydroxy-1-(3-(4′-(3-(2-(1-hydroxyethyl)-1H-imidazol-1-yl)prop-1-yn-1-yl)-[1,1′-biphenyl]-4-yl)azetidin-1-yl)ethan-1-one]",9.15,7.90,> 9.30,4,4,1
–,"C[C@H](O)c1nccn1CC#Cc1ccc(-c2ccc(C3CC(NCCC#N)C3)cc2)cc1 (stereo partly drawn) [Compound 18, (S)-3-((3-(4′-(3-(2-(1-hydroxyethyl)-1H-imidazol-1-yl)prop-1-yn-1-yl)-[1,1′-biphenyl]-4-yl)cyclobutyl)amino)propanenitrile]",9.22,8.07,> 9.30,2,2,0.25
–,"C[C@H](O)c1nccn1[C@@H](C#Cc1ccc(-c2ccc(OCC(C)(O)CO)cc2)cc1)CO (mixture of isomers) [Compound 16, 3-((4′-((S)-4-hydroxy-3-(2-((S)-1-hydroxyethyl)-1H-imidazol-1-yl)but-1-yn-1-yl)-[1,1′-biphenyl]-4-yl)oxy)-2-methylpropane-1,2-diol]",8.66,8.08,8.89,2,4,4
–,"C[C@H](O)c1nccn1[C@@H](C#Cc1ccc(-c2ccc(OC[C@@H](O)CO)cc2)cc1)CO [Compound 8, (S)-3-((4′-((S)-4-hydroxy-3-(2-((S)-1-hydroxyethyl)-1H-imidazol-1-yl)but-1-yn-1-yl)-[1,1′-biphenyl]-4-yl)oxy)propane-1,2-diol]",8.72,8.02,9.00,2,2,4
–,"C[C@H](O)c1nccn1[C@@H](C#Cc1ccc(-c2ccc(OCC(CO)CO)cc2)cc1)CO [Compound 11, 2-(((4′-((S)-4-hydroxy-3-(2-((S)-1-hydroxyethyl)-1H-imidazol-1-yl)but-1-yn-1-yl)-[1,1′-biphenyl]-4-yl)oxy)methyl)propane-1,3-diol]",8.74,8.18,9.00,2,4,8
–,"COC[C@@H](O)COc1ccc(-c2ccc(C#C[C@@H](CO)n3ccnc3[C@H](C)O)cc2)cc1 [Compound 14, (S)-4-(4′-((R)-2-hydroxy-3-methoxypropoxy)-[1,1′-biphenyl]-4-yl)-2-(2-((S)-1-hydroxyethyl)-1H-imidazol-1-yl)but-3-yn-1-ol]",9.05,8.19,> 9.30,1,2,2
–,"C[C@H](O)c1nccn1[C@@H](C#Cc1ccc(-c2ccc(OC(CO)CCO)cc2)cc1)CO (mixture of isomers) [Compound 22, 2-((4′-((S)-4-hydroxy-3-(2-((S)-1-hydroxyethyl)-1H-imidazol-1-yl)but-1-yn-1-yl)-[1,1′-biphenyl]-4-yl)oxy)butane-1,4-diol]",8.82,8.10,9.10,1,4,4
–,"C[C@H](O)c1nccn1[C@@H](C#Cc1ccc(-c2ccc(OCC3COCCO3)cc2)cc1)CO (mixture of isomers) [Compound 13, (2S)-4-(4′-((1,4-dioxan-2-yl)methoxy)-[1,1′-biphenyl]-4-yl)-2-(2-((S)-1-hydroxyethyl)-1H-imidazol-1-yl)but-3-yn-1-ol]",9.05,8.26,> 9.30,2,4,1
–,"C[C@H](O)c1nccn1[C@@H](C#Cc1ccc(-c2ccc(O[C@H]3COC[C@@H]3N)cc2)cc1)CO (relative stereo) [Compound 15, (S)-4-(4′-(((trans)-4-aminotetrahydrofuran-3-yl)oxy)-[1,1′-biphenyl]-4-yl)-2-(2-((S)-1-hydroxyethyl)-1H-imidazol-1-yl)but-3-yn-1-ol]",8.80,8.01,9.00,0.5,2,1
–,"C[C@H](O)c1nccn1[C@@H](C#Cc1ccc(-c2ccc(CO[C@@H]3C[C@H]3N)cc2)cc1)CO (racemic) [Compound 9, (S)-4-(4′-(((trans)-2-aminocyclopropoxy)methyl)-[1,1′-biphenyl]-4-yl)-2-(2-((S)-1-hydroxyethyl)-1H-imidazol-1-yl)but-3-yn-1-ol]",8.41,7.32,8.74,2,4,4
–,"C[C@H](O)c1nccn1CC#Cc1ccc(-c2ccc(C3CC(NC4COC4)C3)cc2)cc1 (stereo partly drawn) [Compound 20, (S)-1-(1-(3-(4′-(3-(oxetan-3-ylamino)cyclobutyl)-[1,1′-biphenyl]-4-yl)prop-2-yn-1-yl)-1H-imidazol-2-yl)ethan-1-ol]",9.15,7.93,> 9.30,4,4,0.5
8,"C[C@H](O)c1nccn1[C@@H](C#Cc1ccc(-c2ccc(C(O)CO)cc2)cc1)CO (mixture of isomers) [Compound 5, 1-(4′-((S)-4-hydroxy-3-(2-((S)-1-hydroxyethyl)-1H-imidazol-1-yl)but-1-yn-1-yl)-[1,1′-biphenyl]-4-yl)ethane-1,2-diol]",–,–,–,4,4,16
0.5,"C[C@H](O)c1nccn1[C@@H](C#Cc1ccc(-c2ccc(C3CC(NCC(F)(F)CO)C3)cc2)cc1)CO (stereo partly drawn) [Compound 34, (S)-4-(4′-(3-((2,2-difluoro-3-hydroxypropyl)amino)cyclobutyl)-[1,1′-biphenyl]-4-yl)-2-(2-((S)-1-hydroxyethyl)-1H-imidazol-1-yl)but-3-yn-1-ol]",–,–,–,2,4,2
0.5,"C[C@H](O)c1nccn1[C@@H](C#Cc1ccc(-c2ccc(C[C@@H]3COC[C@H]3O)cc2)cc1)CO [Compound 41, (3S,4R)-4-((4′-((S)-4-hydroxy-3-(2-((S)-1-hydroxyethyl)-1H-imidazol-1-yl)but-1-yn-1-yl)-[1,1′-biphenyl]-4-yl)methyl)tetrahydrofuran-3-ol]",–,–,–,4,2,2
2,"CC(CNC1CC(c2ccc(-c3ccc(C#C[C@@H](CO)n4ccnc4[C@H](C)O)cc3)cc2)C1)C(=O)O (stereo partly drawn) [Compound 37, 3-((3-(4′-((S)-4-hydroxy-3-(2-((S)-1-hydroxyethyl)-1H-imidazol-1-yl)but-1-yn-1-yl)-[1,1′-biphenyl]-4-yl)cyclobutyl)amino)-2-methylpropanoic acid]",–,–,–,4,4,8

SMILES,MIC (E. coli ATCC25922) [µg/mL],pIC50 (K. pneumoniae LpxC),pIC50 (P. aeruginosa LpxC),pIC50 (E. coli LpxC),MIC (P. aeruginosa 209 PAO1) [µg/mL],MIC (P. aeruginosa ATCC27835) [µg/mL],MIC (K. pneumoniae ATCC13883) [µg/mL]
"C[C@H](O)c1nccn1CC#Cc1ccc(-c2ccc(OCC(N)CO)cc2)cc1 (mixture of isomers) [Compound 7, 2-amino-3-((4′-(3-(2-((S)-1-hydroxyethyl)-1H-imidazol-1-yl)prop-1-yn-1-yl)-[1,1′-biphenyl]-4-yl)oxy)propan-1-ol]",2,–,7.59,7.87,2,2,4
"C[C@H](O)c1nccn1[C@@H](C#Cc1ccc(-c2ccc(O[C@H]3COC[C@@H]3O)cc2)cc1)CO (racemic) [Compound 46, (cis)-4-((4′-((S)-4-hydroxy-3-(2-((S)-1-hydroxyethyl)-1H-imidazol-1-yl)but-1-yn-1-yl)-[1,1′-biphenyl]-4-yl)oxy)tetrahydrofuran-3-ol]",1,–,–,–,1,2,2
